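Each compound was tested at five concentrations against cells in 96-well plates for 48 hours. Here, GI50 denotes the concentration required for 50% inhibition of growth.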 The source made the active and inactive calls. Rule as the data show it: active = GI50 up to about 1.1 µM and inactive = higher.
Experiments:
Assay in all cases: NCI-60 cell line screen, 48 h
OVCAR-4 = tested on: OVCAR-4
UO-31 = tested on: UO-31
SF-268 = tested on: SF-268
IGROV-1 = tested on: IGROV-1
Malme-3M = tested on: Malme-3M
SF-539 = tested on: SF-539
COLO 205 = tested on: COLO 205
NCI-H23 = tested on: NCI-H23
OVCAR-8 = tested on: OVCAR-8
HCT-116 = tested on: HCT-116
M14 = tested on: M14
SK-MEL-28 = tested on: SK-MEL-28
SK-OV-3 = tested on: SK-OV-3
HL-60 = tested on: HL-60
SR = tested on: SR
ACHN = tested on: ACHN
SNB-75 = tested on: SNB-75
NCI-H226 = tested on: NCI-H226
NCI-H460 = tested on: NCI-H460
MCF7 = tested on: MCF7

Measured: GI50

CN(C)c1ccc(O[Si](Oc2ccc(N(C)C)cc2)(Oc2ccc(N(C)C)cc2)Oc2ccc(N(C)C)cc2)cc1
inactive: OVCAR-4 > 100 µM | UO-31 > 100 µM | SF-268 > 100 µM | IGROV-1 > 100 µM | Malme-3M > 100 µM | SF-539 > 100 µM | COLO 205 52.7 µM | NCI-H23 99.5 µM | OVCAR-8 52.8 µM | HCT-116 > 100 µM | M14 > 100 µM | SK-MEL-28 > 100 µM | SK-OV-3 > 100 µM | HL-60 32.9 µM | SR > 100 µM | ACHN > 100 µM | SNB-75 > 100 µM | NCI-H226 > 100 µM

COc1cc(/C=C(/C#N)C(N)=O)ccc1O
inactive: OVCAR-4 > 100 µM | NCI-H460 > 100 µM | UO-31 > 41.5 µM | SF-268 > 100 µM | IGROV-1 > 100 µM | Malme-3M 53.6 µM | SF-539 > 100 µM | COLO 205 > 100 µM | NCI-H23 > 100 µM | OVCAR-8 > 100 µM | HCT-116 > 100 µM | MCF7 > 100 µM | SK-MEL-28 > 100 µM | SK-OV-3 > 100 µM | HL-60 > 100 µM | SNB-75 > 50.1 µM | NCI-H226 > 88.9 µM

O=C1C(Cl)N(c2ccc(Cl)cc2Cl)C1c1c[nH]c2ccccc12 (stereo unspecified)
inactive: OVCAR-4 > 100 µM | NCI-H460 > 100 µM | UO-31 4.75 µM | SF-268 > 100 µM | IGROV-1 > 100 µM | Malme-3M > 100 µM | SF-539 > 100 µM | COLO 205 > 100 µM | NCI-H23 92.3 µM | OVCAR-8 > 100 µM | HCT-116 91.2 µM | M14 > 100 µM | SK-MEL-28 > 100 µM | SK-OV-3 > 100 µM | HL-60 > 100 µM | SR 59.8 µM | SNB-75 6.49 µM

COc1cc2c(cc1OC)C1Cc3sccc3CN1CC2 (stereo unspecified)
inactive: OVCAR-4 > 100 µM | NCI-H460 > 100 µM | UO-31 > 100 µM | SF-268 > 100 µM | IGROV-1 > 100 µM | Malme-3M > 100 µM | SF-539 > 100 µM | NCI-H23 > 100 µM | OVCAR-8 > 100 µM | HCT-116 > 100 µM | M14 72.4 µM | SK-OV-3 > 100 µM | HL-60 > 100 µM | SR 88.9 µM | ACHN > 100 µM | SNB-75 > 100 µM | NCI-H226 > 100 µM

Clc1cc(Cl)cc(C2ON=C(c3ccccc3)N2C23CC4CC(CC(C4)C2)C3)c1 (stereo unspecified)
inactive: OVCAR-4 > 10 µM | NCI-H460 > 10 µM | UO-31 > 10 µM | SF-268 > 10 µM | IGROV-1 > 10 µM | Malme-3M > 10 µM | SF-539 > 10 µM | COLO 205 > 10 µM | NCI-H23 > 10 µM | OVCAR-8 > 10 µM | HCT-116 > 10 µM | M14 > 10 µM | MCF7 > 10 µM | SK-MEL-28 > 10 µM | SK-OV-3 > 10 µM | ACHN > 10 µM | SNB-75 > 10 µM | NCI-H226 > 10 µM

COc1cc(-c2ccc(/N=N/c3ccc4c(S(=O)(=O)O)cc(S(=O)(=O)O)c(N)c4c3O)c(OC)c2)ccc1/N=N/c1ccc2c(S(=O)(=O)O)cc(S(=O)(=O)O)c(N)c2c1O
inactive: OVCAR-4 > 100 µM | NCI-H460 > 100 µM | UO-31 > 100 µM | SF-268 > 100 µM | IGROV-1 > 100 µM | Malme-3M > 100 µM | SF-539 > 100 µM | COLO 205 > 100 µM | NCI-H23 > 100 µM | OVCAR-8 > 100 µM | HCT-116 > 100 µM | MCF7 > 100 µM | SK-MEL-28 > 100 µM | SK-OV-3 > 100 µM | HL-60 > 41.6 µM | SNB-75 > 100 µM | NCI-H226 > 87.5 µM

COc1nc(N)c(C(=O)CCl)c(=O)n1C
inactive: OVCAR-4 15.4 µM | NCI-H460 19 µM | UO-31 22 µM | SF-268 19.1 µM | IGROV-1 13.6 µM | Malme-3M 10.5 µM | SF-539 18 µM | COLO 205 10.6 µM | NCI-H23 > 10 µM | OVCAR-8 19 µM | HCT-116 10.9 µM | M14 > 10 µM | SK-MEL-28 12 µM | HL-60 2.17 µM | SR 15.3 µM | ACHN 20.6 µM | SNB-75 13.3 µM | NCI-H226 4.5 µM

N/C(=N\O)N/N=C\c1c(O)cc(O)cc1O
inactive: OVCAR-4 > 68.4 µM | NCI-H460 49.5 µM | UO-31 26 µM | SF-268 > 100 µM | IGROV-1 44.5 µM | Malme-3M > 100 µM | SF-539 > 100 µM | COLO 205 > 72.9 µM | NCI-H23 > 75 µM | OVCAR-8 39.4 µM | HCT-116 > 94.2 µM | MCF7 36.4 µM | SK-MEL-28 > 100 µM | SK-OV-3 > 89.1 µM | HL-60 26.1 µM | SNB-75 > 47.6 µM | NCI-H226 66.7 µM

O=C1c2ccccc2OCC1/C=N/O (stereo unspecified)
inactive: OVCAR-4 > 62.5 µM | NCI-H460 > 100 µM | UO-31 > 100 µM | SF-268 > 58.9 µM | IGROV-1 82.2 µM | Malme-3M > 100 µM | SF-539 76 µM | NCI-H23 > 100 µM | OVCAR-8 > 100 µM | HCT-116 > 100 µM | MCF7 29.6 µM | SK-MEL-28 51.6 µM | SK-OV-3 > 100 µM | HL-60 > 100 µM | SNB-75 > 100 µM | NCI-H226 > 100 µM

NC(=O)CCC(N=C(N)c1csc(C2OC(CO)C(O)C2O)n1)C(=O)O (stereo unspecified)
inactive: OVCAR-4 > 100 µM | SF-268 > 100 µM | IGROV-1 > 100 µM | Malme-3M > 100 µM | SF-539 > 100 µM | COLO 205 > 100 µM | NCI-H23 > 100 µM | OVCAR-8 > 100 µM | M14 > 100 µM | SK-MEL-28 > 100 µM | SK-OV-3 > 100 µM | HL-60 > 100 µM | ACHN > 100 µM | SNB-75 > 100 µM

O=C(O)CN(CC(=O)O)C1CCCCC1N(CC(=O)O)CC(=O)NCCN=C=S (stereo unspecified)
inactive: NCI-H460 > 100 µM | UO-31 > 100 µM | SF-268 > 100 µM | IGROV-1 > 100 µM | Malme-3M > 100 µM | SF-539 > 100 µM | NCI-H23 > 100 µM | OVCAR-8 > 100 µM | HCT-116 > 100 µM | M14 > 100 µM | MCF7 > 100 µM | SK-MEL-28 > 100 µM | SK-OV-3 > 100 µM | HL-60 > 100 µM | ACHN > 100 µM | NCI-H226 > 100 µM

Cc1[nH]c(=O)[nH]c(=O)c1/C=C/C(=O)NC(CO)C[S+]([O-])Cc1ccccc1 (stereo unspecified)
inactive: NCI-H460 > 300 µM | UO-31 > 300 µM | SF-268 > 300 µM | IGROV-1 > 300 µM | Malme-3M > 300 µM | SF-539 > 300 µM | COLO 205 > 300 µM | NCI-H23 > 300 µM | OVCAR-8 > 300 µM | HCT-116 > 300 µM | MCF7 > 300 µM | SK-MEL-28 > 300 µM | SK-OV-3 > 300 µM | HL-60 > 300 µM | SNB-75 296 µM | NCI-H226 > 300 µM

Source: ChEMBL document CHEMBL1201862, “PubChem BioAssay data set” (2004)
